Key:
Experiment in all cases: relative viability (nuclei count vs DMSO), 5 days (fraction); higher = more cells survive
Obatoclax + Palbociclib = compound: COC1=CC(c2cc3ccccc3[nH]2)=N/C1=C\c1[nH]c(C)cc1C [Obatoclax] + CC(=O)c1c(C)c2cnc(Nc3ccc(N4CCNCC4)cn3)nc2n(C2CCCC2)c1=O [Palbociclib] (partner 0.5 µM)
How it was run: (§1)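 Relative viability equals treated-well nuclei counts divided by vehicle-well nuclei counts. Counts came from 4× images of lung cancer cell lines grown in 1536-well plates for 5 days after pin-tool dosing on the day after seeding. Dosing used one drug alone or a fixed anchor-drug dose plus five library-drug doses (not always all listed) in √10 steps, and values are medians of duplicate plates.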

Obatoclax + Tozasertib = compound: COC1=CC(c2cc3ccccc3[nH]2)=N/C1=C\c1[nH]c(C)cc1C [Obatoclax] + Cc1cc(Nc2cc(N3CCN(C)CC3)nc(Sc3ccc(NC(=O)C4CC4)cc3)n2)n[nH]1 [Tozasertib] (partner 0.1 µM)
How it was run: as §1

Obatoclax + Alpelisib = compound: COC1=CC(c2cc3ccccc3[nH]2)=N/C1=C\c1[nH]c(C)cc1C [Obatoclax] + Cc1nc(NC(=O)N2CCC[C@H]2C(N)=O)sc1-c1ccnc(C(C)(C)C(F)(F)F)c1 [Alpelisib] (partner 2 µM)
How it was run: as §1

Bortezomib + Olaparib = compound: CC(C)C[C@H](NC(=O)[C@H](Cc1ccccc1)NC(=O)c1cnccn1)B(O)O [Bortezomib] + O=C(c1cc(Cc2n[nH]c(=O)c3ccccc23)ccc1F)N1CCN(C(=O)C2CC2)CC1 [Olaparib] (partner 8 µM)
How it was run: as §1

Cell Line	relative viability (Obatoclax + Palbociclib; first compound 0.01 µM)	relative viability (Obatoclax + Palbociclib; first compound 0.03162 µM)	relative viability (Obatoclax + Palbociclib; first compound 0.1 µM)	relative viability (Obatoclax + Palbociclib; first compound 0.3162 µM)	relative viability (Obatoclax + Palbociclib; first compound 1 µM)	relative viability (Obatoclax + Tozasertib; first compound 0.01 µM)	relative viability (Obatoclax + Tozasertib; first compound 0.03162 µM)	relative viability (Obatoclax + Tozasertib; first compound 0.1 µM)	relative viability (Obatoclax + Tozasertib; first compound 0.3162 µM)	relative viability (Obatoclax + Tozasertib; first compound 1 µM)	relative viability (Obatoclax + Alpelisib; first compound 0.01 µM)	relative viability (Obatoclax + Alpelisib; first compound 0.03162 µM)	relative viability (Obatoclax + Alpelisib; first compound 0.1 µM)	relative viability (Obatoclax + Alpelisib; first compound 0.3162 µM)	relative viability (Obatoclax + Alpelisib; first compound 1 µM)	relative viability (Bortezomib + Olaparib; first compound 0.0002 µM)	relative viability (Bortezomib + Olaparib; first compound 0.000632 µM)	relative viability (Bortezomib + Olaparib; first compound 0.002 µM)	relative viability (Bortezomib + Olaparib; first compound 0.006325 µM)	relative viability (Bortezomib + Olaparib; first compound 0.02 µM)
201T	0.382	0.363	0.348	0.348	0.357	0.896	0.94	0.93	0.876	1.04	1	0.983	1.02	1.04	1.08	0.83	0.856	0.803	0.753	0.214
A549	–	–	–	–	–	–	–	–	–	–	0.76	0.876	0.748	0.298	0.0816	0.355	0.401	0.49	0.291	0.189
A-427	0.54	0.511	0.419	0.517	0.462	0.164	0.24	0.243	0.212	0.191	1.14	1.09	1.13	1.04	1.01	0.711	0.727	0.759	0.188	0.151
ABC-1	0.838	0.717	0.595	0.609	0.454	0.181	0.17	0.177	0.209	0.223	1.04	1.18	1.09	1.19	0.573	0.897	0.922	0.374	0.342	0.424
BEN	0.467	0.477	0.429	0.462	0.44	0.491	0.467	–	0.626	0.506	0.963	1	0.904	1.16	0.911	1.15	0.921	0.845	0.742	0.218
CAL-12T	0.445	0.495	0.426	0.176	0.0895	0.389	0.326	0.36	0.153	0.0881	1.14	1.29	1.01	0.695	0.129	0.625	0.675	0.62	0.282	0.199
COR-L23	0.306	0.303	0.228	0.128	0.122	0.233	0.182	0.217	0.111	0.108	0.765	0.808	0.675	0.209	0.182	0.37	0.375	0.203	0.0613	0.0717
COR-L 105	0.408	0.441	0.375	0.361	0.341	0.381	0.316	0.345	0.284	0.248	1.02	1.21	0.944	0.904	0.336	0.692	0.683	0.72	0.419	0.356
Calu-6	–	–	–	–	–	–	–	–	–	–	0.899	1.01	0.898	0.677	0.205	0.509	0.524	0.529	0.0855	0.0795
ChaGo-K-1	0.912	0.925	0.91	0.903	0.99	0.247	0.24	0.243	0.24	0.235	–	–	–	–	–	0.387	0.385	0.432	0.151	0.115
EBC-1	–	–	–	–	–	–	–	–	–	–	0.82	0.92	0.902	0.435	0.251	0.756	0.67	0.229	0.0791	0.064
EKVX	0.438	–	0.393	0.388	0.386	0.371	0.357	0.466	0.385	0.394	0.941	0.9	1.02	0.853	0.891	0.763	0.81	0.812	0.237	0.11
EMC-BAC-2	0.502	0.494	0.474	0.556	0.432	0.279	0.294	0.25	0.289	0.263	0.658	0.797	0.744	0.738	0.696	0.469	0.486	0.487	0.258	0.185
EPLC-272H	0.323	0.313	0.477	0.266	0.282	0.255	0.229	0.343	0.326	0.545	1.08	0.962	0.808	0.906	0.941	0.9	0.746	0.171	0.0682	0.0612
H3255	0.308	0.299	0.278	0.327	0.324	0.6	0.796	0.513	0.638	0.73	0.611	0.725	0.732	0.631	0.55	0.579	0.545	0.36	0.233	0.237
